Measurements: patent US20240279237A1, “FUSED BICYCLIC HETEROARYL COMPOUNDS USEFUL AS NLRP3 INHIBITORS” (Hoffmann-La Roche Inc., priority 2021, published 2024)
Counter-ions that a name gives are not always drawn.

These compounds were tested against T1, NLRP3 (Homo sapiens, UniProt Q96P20) (assay: THP-1 Cells Pyroptosis Assay). Settings: THP-1 cells with 1.0 μg/ml LPS; compound 3 hours; nigericin 5 μM 1 hr; resazurin readout.
T1 construct: Seed THP-1 cells (25,000 cells/well) containing 1.0 μg/ml LPS in 40 μl of RPMI medium; host or cells: THP-1 cells
Format: cell-based
Experimental: The cells were routinely passaged and grown to confluency (˜10^6 cells/ml). On the day of the experiment, THP-1 cells were harvested and resuspended into RPMI medium (without FBS). The cells were then counted and viability (>90%) checked by Trypan blue (Sigma #T8154). […] To this diluted cell solution was added LPS (Sigma #L4524) to give a 1 μg/ml Final Assay Concentration (FAC). 40 μl of the final preparation was aliquoted into each well of a 96-well plate. The plate thus prepared was used for compound screening.
The following method step-by-step assay was followed for compound screening. • 1. […] Incubate for 3 hours at 37° C., 5% CO2 • 4. Add 5 μl nigericin (Sigma #N7143) (FAC 5 μM) to all wells • 5. Incubate for 1 hr at 37° C., 5% CO2 • 6. At the end of the incubation period, spin plates at 300×g for 3 mins and remove supernatant • 7. Then add 50 μl of resazurin (Sigma #R7017) (FAC 100 μM resazurin in RPMI medium without FBS) and incubate plates for a further 1-2 hours at 37° C. and 5% CO2 • 8.

T1 sequence (Q96P20 whole entry): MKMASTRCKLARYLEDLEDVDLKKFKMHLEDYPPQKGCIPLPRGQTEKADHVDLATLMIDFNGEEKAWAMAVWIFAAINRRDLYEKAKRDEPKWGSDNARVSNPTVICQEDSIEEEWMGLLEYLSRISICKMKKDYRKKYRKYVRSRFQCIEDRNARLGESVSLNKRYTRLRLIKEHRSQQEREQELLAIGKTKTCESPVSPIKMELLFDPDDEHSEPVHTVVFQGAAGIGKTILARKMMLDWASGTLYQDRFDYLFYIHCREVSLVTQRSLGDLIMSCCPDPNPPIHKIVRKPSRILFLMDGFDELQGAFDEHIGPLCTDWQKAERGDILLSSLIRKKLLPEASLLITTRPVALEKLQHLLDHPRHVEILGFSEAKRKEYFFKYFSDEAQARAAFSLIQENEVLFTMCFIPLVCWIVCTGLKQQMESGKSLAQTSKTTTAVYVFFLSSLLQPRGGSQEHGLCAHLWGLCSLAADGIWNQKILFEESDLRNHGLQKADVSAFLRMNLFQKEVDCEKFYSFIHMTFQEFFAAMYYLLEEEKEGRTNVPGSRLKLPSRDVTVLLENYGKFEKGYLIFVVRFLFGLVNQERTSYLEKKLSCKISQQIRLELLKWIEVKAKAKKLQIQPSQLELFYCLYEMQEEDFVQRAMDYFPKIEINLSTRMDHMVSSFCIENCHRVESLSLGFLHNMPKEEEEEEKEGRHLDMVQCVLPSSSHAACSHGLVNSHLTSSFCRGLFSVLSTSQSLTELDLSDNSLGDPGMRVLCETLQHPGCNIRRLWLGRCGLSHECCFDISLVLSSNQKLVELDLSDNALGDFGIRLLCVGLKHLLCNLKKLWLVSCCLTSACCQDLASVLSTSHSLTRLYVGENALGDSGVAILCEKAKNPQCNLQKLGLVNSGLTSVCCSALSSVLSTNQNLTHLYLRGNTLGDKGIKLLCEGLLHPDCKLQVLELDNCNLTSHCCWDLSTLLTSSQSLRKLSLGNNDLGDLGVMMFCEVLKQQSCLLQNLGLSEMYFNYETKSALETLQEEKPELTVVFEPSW

Row | Compound | IC50 [nM]
1 | CCN1CCCC(Nc2nc3nc(-c4c(C)cc(C(F)(F)F)cc4O)cnc3o2)C1 (racemic) [Example 32, (rac)-2-[2-[(1-Ethyl-3-piperidyl)amino]oxazolo[4,5-b]pyrazin-5-yl]-3-methyl-5-(trifluoromethyl)phenol;2,2,2-trifluoroacetic acid salt] | 3
2 | CCN1CCC(O)C(Nc2nc3nc(-c4c(C)cc(Cl)cc4O)ccc3o2)C1 (stereo not shown) [Example 124, 3-[[5-(4-Chloro-2-hydroxy-6-methyl-phenyl)oxazolo[4,5-b]pyridin-2-yl]amino]-1-ethyl-piperidin-4-ol] | 53.8
3 | CCN1CCCC(Nc2nc3nc(-c4c(O)cc(Cl)cc4COC)ccc3o2)C1 [Example 24, 5-Chloro-2-[2-[[(3R)-1-ethyl-3-piperidyl]amino]oxazolo[4,5-b]pyridin-5-yl]-3-(methoxymethyl)phenol;2,2,2-trifluoroacetic acid salt] | 1.7
4 | CCN1CCC[C@@H](Nc2nc3nc(-c4c(O)cc(C(F)(F)F)cc4OC)ccc3o2)C1 [Example 31, 2-[2-[[(3R)-1-Ethyl-3-piperidyl]amino]oxazolo[4,5-b]pyridin-5-yl]-3-methoxy-5-(trifluoromethyl)phenol;2,2,2-trifluoroacetic acid salt] | 4
5 | Cc1cc(C2CC2)cc(O)c1-c1ccc2oc(N[C@@H]3CCCN(C)C3)nc2n1 [Example 36, 5-Cyclopropyl-3-methyl-2-[2-[[(3R)-1-methyl-3-piperidyl]amino]oxazolo[4,5-b]pyridin-5-yl]phenol] | 32
6 | Cc1cc(C#N)cc(O)c1-c1ccc2oc(N3CCC4CCN(C)CC43)nc2n1 (single isomer, unassigned) [Example 27A, 4-[2-[(3aS,7aR or 3aR,7aS)-6-methyl-3,3a,4,5,7,7a-hexahydro-2H-pyrrolo[2,3-c]pyridin-1-yl]oxazolo[4,5-b]pyridin-5-yl]-3-hydroxy-5-methyl-benzonitrile] | 578
7 | Cc1cc(C(F)(F)F)cc(O)c1-c1cc(C(C)(C)O)c2oc(N[C@@H]3CCCN(C)C3)nc2n1 [Example 105, 2-[7-(1-Hydroxy-1-methyl-ethyl)-2-[[(3R)-1-methyl-3-piperidyl]amino]oxazolo[4,5-b]pyridin-5-yl]-3-methyl-5-(trifluoromethyl)phenol;2,2,2-trifluoroacetic acid] | 8.9
8 | 3-Methyl-2-[2-[[(2S)-1-methylazetidin-2-yl]methylamino]oxazolo[4,5-b]pyridin-5-yl]-5-(trifluoromethyl)phenol or 3-methyl-2-[2-[[(2R)-1-methylazetidin-2-yl]methylamino]oxazolo[4,5-b]pyridin-5-yl]-5-(trifluoromethyl)phenol [Example 66B] | 256
9 | CCN1C[C@@H](F)C[C@@H](Nc2nc3nc(-c4c(C)cc(Cl)cc4O)ccc3o2)C1 [Example 54, 5-Chloro-2-[2-[[(3R,5S)-1-ethyl-5-fluoro-3-piperidyl]amino]oxazolo[4,5-b]pyridin-5-yl]-3-methyl-phenol] | 10.1
10 | COCCN(c1nc2nc(-c3c(C)cc(Cl)cc3O)ccc2o1)[C@@H]1CCCN(C)C1 [Example 90, 5-Chloro-2-[2-[2-methoxyethyl-[(3R)-1-methyl-3-piperidyl]amino]oxazolo[4,5-b]pyridin-5-yl]-3-methyl-phenol;formic acid] | 22.6
11 | CCN1CCC[C@@H](Nc2nc3ccc(-c4c(C)cc(Cl)cc4O)nc3[nH]2)C1 [Example 136, 5-Chloro-2-[2-[[(3R)-1-ethyl-3-piperidyl]amino]-3H-imidazo[4,5-b]pyridin-5-yl]-3-methyl-phenol] | 1
12 | Cc1ccc(C)c(-c2ccc3oc(N[C@@H]4CCCN(C)C4)nc3n2)c1O [Example 69, 3,6-Dimethyl-2-[2-[[(3R)-1-methyl-3-piperidyl]amino]oxazolo[4,5-b]pyridin-5-yl]phenol] | 2.7
13 | Cc1cc(C#N)cc(O)c1-c1ccc2oc(N[C@H]3CCCN4CCC[C@@H]34)nc2n1 (single isomer, unassigned) [Example 139A, 4-[2-[[(8S,8aS)-1,2,3,5,6,7,8,8a-Octahydroindolizin-8-yl]amino]oxazolo[4,5-b]pyridin-5-yl]-3-hydroxy-5-methyl-benzonitrile or 4-[2-[[(8R,8aR)-1,2,3,5,6,7,8,8a-octahydroindolizin-8-yl]amino]oxazolo[4,5-b]pyridin-5-yl]-3-hydroxy-5-methyl-benzonitrile] | 3.7
14 | CCN1CCC[C@@H](Nc2nc3nc(-c4c(C)cc(Cl)c(F)c4O)ccc3o2)C1 [Example 21, 5-Chloro-2-[2-[[(3R)-1-ethyl-3-piperidyl]amino]oxazolo[4,5-b]pyridin-5-yl]-6-fluoro-3-methyl-phenol;2,2,2-trifluoroacetic acid salt] | 0.6
15 | Cc1cc(C(F)(F)F)cc(O)c1-c1ccc2oc(N3CC[C@@H]4CCN(C)C[C@@H]43)nc2n1 (single isomer, unassigned) [Example 37A, 2-[2-[(3aS,7aR)-6-Methyl-3,3a,4,5,7,7a-hexahydro-2H-pyrrolo[2,3-c]pyridin-1-yl]oxazolo[4,5-b]pyridin-5-yl]-3-methyl-5-(trifluoromethyl)phenol or 2-[2-[(3aR,7aS)-6-methyl-3,3a,4,5,7,7a-hexahydro-2H-pyrrolo[2,3-c]pyridin-1-yl]oxazolo[4,5-b]pyridin-5-yl]-3-methyl-5-(trifluoromethyl)phenol] | 216
16 | CNC1CCCN(c2nc3nc(-c4c(C)cc(C(F)(F)F)cc4O)ccc3o2)C1 (racemic) [Example 10, (rac)-3-Methyl-2-[2-[3-(methylamino)-1-piperidyl]oxazolo[4,5-b]pyridin-5-yl]-5-(trifluoromethyl) phenol] | 107
17 | Cc1cc(S(C)(=O)=O)cc(O)c1-c1ccc2oc(N[C@@H]3CCCN(C)C3)nc2n1 [Example 89, 3-Methyl-2-[2-[[(3R)-1-methyl-3-piperidyl]amino]oxazolo[4,5-b]pyridin-5-yl]-5-methylsulfonyl-phenol;2,2,2-trifluoroacetic acid] | 536
18 | Cc1cc(C(F)(F)F)cc(O)c1-c1ccc2oc(NCC34CC(CN3)C4)nc2n1 [Example 43, 2-[2-(2-Azabicyclo[2.1.1]hexan-1-ylmethylamino)oxazolo[4,5-b]pyridin-5-yl]-3-methyl-5-(trifluoromethyl)phenol;dihydrochloride] | 30.5
19 | CCN1CCC[C@@H](Nc2nc3nc(-c4c(O)cc(C#N)cc4Cl)ccc3o2)C1 [Example 107, 3-Chloro-4-[2-[[(3R)-1-ethyl-3-piperidyl]amino]oxazolo[4,5-b]pyridin-5-yl]-5-hydroxy-benzonitrile;2,2,2-trifluoroacetic acid] | 8.8
20 | CCN1CCC[C@@H](Nc2nc3nc(-c4c(O)cc(Cl)cc4C#N)ccc3o2)C1 [Example 23, 5-Chloro-2-[2-[[(3R)-1-ethyl-3-piperidyl]amino]oxazolo[4,5-b]pyridin-5-yl]-3-hydroxy-benzonitrile] | 4.2
21 | Cc1cc(Cl)cc(O)c1-c1ccc2oc(N[C@@H]3CCCN(CCCO)C3)nc2n1 [Example 95, 5-Chloro-2-[2-[[(3R)-1-(3-hydroxypropyl)-3-piperidyl]amino]oxazolo[4,5-b]pyridin-5-yl]-3-methyl-phenol] | 11.2
22 | Cc1cc(C(F)(F)F)cc(O)c1-c1ccc2oc(N3CC(O)C3)nc2n1 [Example 12, 1-[5-[2-Hydroxy-6-methyl-4-(trifluoromethyl)phenyl]oxazolo[4,5-b]pyridin-2-yl]azetidin-3-ol] | 215
23 | Cc1cc(C(F)(F)F)cc(O)c1-c1ccc2oc(N3CCO[C@@H]4CNC[C@H]43)nc2n1 [Example 64A, 2-[2-[(4aR,7aR)-3,4a,5,6,7,7a-Hexahydro-2H-pyrrolo[3,4-b][1,4]oxazin-4-yl]oxazolo[4,5-b]pyridin-5-yl]-3-methyl-5-(trifluoromethyl)phenol] | 1.7
24 | 5-Chloro-2-[2-[[(3R)-1-ethyl-3-piperidyl]amino]oxazolo[4,5-b]pyridin-5-yl]-4-fluoro-3-methyl-phenol;2,2,2-trifluoroacetic acid salt [Example 22] | 5.4
25 | Cc1cc(Cl)cc(O)c1-c1ccc2oc(N[C@@H]3CCCN(CCC(F)F)C3)nc2n1 [Example 74, 5-Chloro-2-[2-[[(3R)-1-(3,3-difluoropropyl)-3-piperidyl]amino]oxazolo[4,5-b]pyridin-5-yl]-3-methyl-phenol] | 9.2
26 | Cc1cc(C(F)(F)F)cc(O)c1-c1ccc2oc(NC3CCCOC3)nc2n1 (racemic) [Example 11, (rac)-3-Methyl-2-[2-(tetrahydropyran-3-ylamino)oxazolo[4,5-b]pyridin-5-yl]-5-(trifluoromethyl)phenol] | 217
27 | Cc1cc(Cl)cc(O)c1-c1ccc2oc(CC3CN(C(C)C)CCO3)nc2n1 (stereo not shown) [Example 88, 5-Chloro-2-[2-[(4-isopropylmorpholin-2-yl)methyl]oxazolo[4,5-b]pyridin-5-yl]-3-methyl-phenol;formic acid] | 6
28 | CCN1CCC[C@@H](Nc2nc3nc(-c4c(C)cc(OC(F)(F)F)cc4O)ccc3o2)C1 [Example 137, 2-[2-[[(3R)-1-Ethyl-3-piperidyl]amino]oxazolo[4,5-b]pyridin-5-yl]-3-methyl-5-(trifluoromethoxy)phenol;2,2,2-trifluoroacetic acid] | 4.8
